Test results published in patent US20110098556A1, “Computer-Based Method And System For Imaging-Based Dynamic Function Evaluation Of An Organ” (priority 2008, published 2011).
“And” between values parts separate entries of the source, which are not always exact repeats. Equal values may be shown once.

How the values were obtained:
liver [1] = experiment: Gd-EOB-DTPA-enhanced DHCE-MRI in patients with primary biliary cirrhosis (PBC); type: in vivo, human
Procedure: (§1) T1-weighted Gd-EOB-DTPA-enhanced DHCE-MRI was performed on 20 healthy volunteers, 10 men and 10 women, and on patients with an established diagnosis of PBC. Routine serum liver function tests were performed at inclusion in the study on the healthy volunteers, and for the patients it was recorded from the most recent visit documented in their clinical charts. The healthy volunteers had no history of hepato-biliary disease, previous hepato-biliary surgery or alcohol abuse. All subjects were asked to be fasting for at least four hours prior to the examination. For each patient, relevant clinical data was documented and together with the results from the liver function tests they were used to calculate the CPS, Mayo risk score and MELD score.
(§2) T1-weighted Gd-EOB-DTPA-enhanced DHCE-MRI was performed using a Philips Intera 1.5T scanner (Best, Holland), with a Philips four-channel SENSE body coil according to the protocol in Example 1. Deconvolutional analysis was performed using truncated singular value decomposition (TSVD). HEF and irBF were calculated as described above. […] The Mann-Whitney U-test was used for test of significance and the significance level was set to […]. All segments in every patient and controls yielded an observation and in the statistical analysis, all observations were regarded as independent observations, even if they originated from one individual. Thus, the study yielded 180 observations for each of the abovementioned parameters from the controls, and 108 observations from PBC patients.

liver [2] = experiment: Gd-EOB-DTPA-enhanced MRI in patients with primary sclerosing cholangitis (PSC); type: in vivo, human; parameters: HEF: unit not given here
Procedure: as §1, with “MRI” for “DHCE-MRI”, “PSC.” for “PBC.”
as §2, with “MRI” for “DHCE-MRI”, “protocol as outlined” for “protocol”, “PSC” for “PBC”

liver [3] = experiment: T1-weighted Gd-EOB-DTPA-enhanced DHCE-MRI liver function test, healthy volunteers; type: in vivo, human; parameters: key to median HEF / HEF, mean / HEF, median / HEF, max / HEF: ratio of extrapolated hepatic retention curve to vascular peak of HE curve; conditions: for median HEF: healthy volunteers; for HEF, mean / HEF, max / HEF, median: n=20 healthy volunteers
Procedure: Deconvoluted liver response curves were analyzed with respect to HEF and RBF. HEF was described by Brown et al using Tc-99-disofenin scintigraphy as a measurement of hepatic extraction efficiency, and could be understood as the percentage of tracer that would have been extracted if the tracer had been injected directly into the afferent blood supply of the liver without subsequent recirculation. […] The HE curve can be divided into the vascular phase and the hepatocyte retention phase, which describes the hepatic extraction. We calculated HEF using a monoexponential fit to the HE-curve data points from 420 to 1800 seconds after the time of injection of the tracer. The starting point at 420 seconds was chosen after visual inspection of the deconvoluted HE curves. The fitted curve, the hepatic retention curve (HRC, a mono-exponentially decaying fitted curve), is then extrapolated back to the time of the vascular peak value, and HEF is defined as the ratio between the extrapolated HRC curve and the vascular peak of the HE curve (also shown in FIG. 3),
RBF, giving a relative measurement of blood flow in the liver, is described as the initial peak value of the HE curve. RBF values were normalized to the segment with the highest RBF, i.e. the segment with the highest RBF was set to 100%.
The input function was defined by a region of interest (ROI) placed in the hilar part of the portal vein. Due to patient motion, the input function ROI was adjusted in each dynamic acquisition so the voxels represent portal vein blood. Liver response function curves were defined by placing three ROIs in each liver segment (I to VIII with segment IV divided into IVa and IVb). The relative enhancement over time of the voxels in the ROI was regarded as the parenchymal response function for that ROI. Data points were interpolated using equidistant spacing (60 s) over the 90-minute time period. […] Care was taken to as far as possible to exclude major blood vessels and visible bile ducts when the ROIs were placed. Segments were defined and nomenclature adhered to as proposed by Strasberg SM. Terminology of liver anatomy and liver resections: coming to grips with hepatic Babel. J Am Coll Surg 1997; 184(4):413-434, which is incorporated herein by reference in its entirety. However, other segmentations may be used in other embodiments.
HEF and RBF were calculated for each ROI both with TSVD and FA+tail using specific in-house software written in MATLAB® (Mathworks, […], USA). Thus, each ROI yielded two values for HEF and RBF respectively. For TSVD, a static truncation threshold was set at c=0.07. A cosine function from 0 to π/2 with the initial height of the last point of x(t) and y(t) was added for the DA performed with FA, and the length of the tail was set to be three times the length of the total sampling period of 90 minutes. […]
To arrive at an estimation of the model parameters, an iterative method was used. After assigning starting values to kij and f the impulse response function h(t) was estimated through Eq 10, and an output function yout(t) was calculated through yout(t)=h(t) ? x(t)+f·x(t), using the input function x(t) from the portal vein as an estimate for the blood pool signal in Equation 7. The response function y(t) on the other hand was measured in a ROI in the liver parenchyma, and the parameters kij and f were determined by iteratively minimizing the squared difference diff=(y(t)−yout(t))^2, see FIG. 17.
For some response curves either T10, or both T5 and T10, were beyond the last measured time point, and no value was set. Tmax, T5 and T10 were measured in seconds.
where g(t) is the fitted curve and the fitting parameters c2 and TU describe contrast uptake, while c1 and TE describe the liver contrast excretion. Both TE and TU were calculated in minutes.
T1-weighted Gd-EOB-DTPA-enhanced DHCE-MRI was performed on 20 healthy volunteers, 10 men and 10 women, ages ranging from 22 to 45 years. […]

[4] = in vivo; cited from earlier work
[5] = individual PBC patient, median of 9 segmental values
[6] = median for PBC patients (n = 108)
[7] = individual PSC patient, median of 9 segmental values
[8] = median for PSC patients (segments n = 108)
[9] = median for healthy controls (n = 180)

T5 (liver [1]; [6]): 1440 s
T10 (liver [1]; [6]): 1920 s
TE (liver [1]; [6]): 2850 min
Tmax (liver [1]; [6]): 41 min
HEF (liver [1]; median for PBC patients (n = 108 segments)): 0.161
HEF (liver [2]; [8]): 0.176
T5 (liver [2]; [8]): 1340 s
T10 (liver [2]; [8]): 2050 s
TE (liver [2]; [8]): 204 min
Tmax (liver [2]; [8]): 37.67 min
signal intensity half-time (TE) (liver [3]; compared with total scan time): > 90 min
mean HEF (liver [3]; example 1, healthy volunteers): above 20%
hepatic extraction fraction (HEF) (liver [3]; example curve of FIG. 3, FA+tail): approximately 17%
median HEF (liver [3]; left hemiliver, FA+tail): 0.194
median HEF (liver [3]; left hemiliver, TSVD): 0.196
HEF (liver [3]; median for 20 healthy controls (n = 180 segments), TSVD): 0.201
T5 (liver [3]; [9]): 1600 s
T10 (liver [3]; [9]): 2295 s
Tmax (liver [3]; [9]): 33.33 min
HEF, mean (liver [3]; 180 segmental values, deconvolution by TSVD): 0.215
HEF, max (liver [3]; FA + tail): 0.440
HEF, median (liver [3]; FA + tail): 0.210
HEF, max (liver [3]; TSVD): 0.436
HEF, median (liver [3]; TSVD): 0.208
HEF, mean (liver [3]; deconvolution by FA + tail): 0.217
median HEF (liver [3]; right hemiliver, FA+tail): 0.224
median HEF (liver [3]; right hemiliver, TSVD): 0.218
Compound: CCOc1ccc(CC(CN(CCN(CC(=O)[O-])CC(=O)[O-])CC(=O)[O-])N(CC(=O)[O-])CC(=O)[O-])cc1.[Gd+3].[Na+].[Na+] (stereo not drawn) [Gd-EOB-DTPA, Gadolinium ethoxybenzyl diethylenetriaminepentaacetic acid]
T5 (time from Tmax to five percent decay) (liver [1]; [5]): 24.33 min and 18.17 min and 40.67 min and 33 min and 24.83 min and 21.67 min and 34 min and 24.67 min and 25.67 min and 13.5 min and 4 min and 15.7 min
T10 (time from Tmax to ten percent decay) (liver [1]; [5]): 30.5 min and 28 min and 38 min and 34 min and 50.5 min and 32.5 min and 48 min and 41 min and 41.33 min and 30 min and 15.7 min and 24 min
Tmax (time to maximum intensity) (liver [1]; [5]): 48.33 min and 35 min and 36.67 min and 66.67 min and 43.33 min and 60 min and 22.67 min and 40 min and 8 min and 3.33 min and 51.67 min
HEF (liver [1]; individual PBC patient, median of 9 segmental values, TSVD): 0.163 (2×) and 0.225 and 0.302 and 0.150 and 0.093 and 0.226 and 0.199 and 0.155 and 0.106 and 0.047 and 0.152
TE (excretion half-time) (liver [1]; individual PBC patient, median of 9 segments, bi-exponential fit): 3780 min and 1591 min and 4791 min and 6961 min and 4241 min and 1180 min and 8011 min and 2130 min and 2481 min and 1141 min and 2830 min and 1281 min
T5 (liver [2]; [7]): 1720 s and 980 s and 1620 s and 940 s and 1420 s and 1380 s and 1170 s and 1400 s and 1250 s and 1500 s and 1340 s and 2140 s
T10 (liver [2]; [7]): 1980 s and 1560 s and 1950 s and 1720 s and 2645 s and 1840 s and 2340 s and 2600 s and 2050 s and 2490 s and 2460 s and 3540 s
Tmax (liver [2]; [7]): 56.67 min and 41.67 min and 46.67 min and 27 min and 31 min and 30 min and 48 min and 21.33 min and 36.67 min and 28 min and 63.33 min
HEF (liver [2]; individual PSC patient, median of 9 segmental values, TSVD): 0.158 and 0.213 and 0.221 and 0.307 and 0.140 and 0.220 and 0.159 and 0.136 (2×) and 0.123 and 0.174 and 0.240
TE (liver [2]; individual PSC patient, median of 9 segments, bi-exponential fit): 1427 min and 110 min and 184 min and 102 min and 244 min and 211 min and 251 min and 203 min and 147 min and 128 min and 341 min and 452 min
fraction eliminated by renal excretion (glomerular filtration) [4]: 50%
hepatic clearance [4]: about 50%
